From the supplement of paper PMC7108870

Experiments:
HEK293sieSTAT3(Y640F) [1] = assay: drug sensitivity score (DSS), cytotoxicity CellTox Green (DSS (dimensionless)); higher = more cytotoxic; extreme values may be limits of the assay; conditions: 72 h; STAT3 variant: Y640F (constitutively active)
How it was run: (§1)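 A drug sensitivity score, based on the area of the dose-response curve, was calculated in Breeze after normalising values to negative and positive control wells. It came from HEK293 cells carrying a STAT3-dependent luciferase reporter and overexpressing wild-type or mutant STAT3, plated at 20 μl of 100,000 cells/ml onto compounds acoustically pre-plated at 5 concentrations in 10-fold dilutions in 384-well plates. Following 72 hours at 37°C and 5% CO2, CellTox Green fluorescence (485/520 nm) and then CellTiter-Glo luminescence were read on a PHERAstar FS.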

HEK293sieSTAT3(wt) [2] = assay: as above; conditions: 72 h; STAT3 variant: wild type
How it was run: as §1

HEK293sieSTAT3(Y640F) [3] = assay: drug sensitivity score (DSS), viability CellTiter-Glo (DSS (dimensionless)); higher = more growth inhibition; extreme values may be limits of the assay; conditions: 72 h; STAT3 variant: Y640F (constitutively active)
How it was run: as §1

HEK293sieSTAT3(wt) [4] = assay: as above; conditions: 72 h; STAT3 variant: wild type
How it was run: as §1

Structure (SMILES) | drug sensitivity score (HEK293sieSTAT3(Y640F) [1]) | drug sensitivity score (HEK293sieSTAT3(wt) [2]) | drug sensitivity score (HEK293sieSTAT3(Y640F) [3]) | drug sensitivity score (HEK293sieSTAT3(wt) [4])
O=C(NC[C@H](O)CO)c1ccncc1Nc1ccc(I)cc1F [Pimasertib] (top concentration tested 10000 nM) | 0 | 0 | 0.57 | 0
CC(C)N(C[C@H]1O[C@@H](n2cnc3c(N)ncnc32)[C@H](O)[C@@H]1O)[C@H]1C[C@@H](CCc2nc3cc(C(C)(C)C)ccc3[nH]2)C1 [Pinometostat] (top concentration tested 1000 nM) | 0.46 | 0 | 0.69 | 0
O=C(CCBr)N1CCN(C(=O)CCBr)CC1 [Pipobroman] (top concentration tested 10000 nM) | 0 | 0 | 6.86 | 1.43
NCCNc1ccc(NCCN)c2c1C(=O)c1ccncc1C2=O [Pixantrone] (top concentration tested 10000 nM) | 0 | 0 | 1.82 | 0
c1cc(CN2CCCNCCNCCCNCC2)ccc1CN1CCCNCCNCCCNCC1 [Plerixafor] (top concentration tested 10000 nM) | 0 | 0.25 | 0 | 0
CO[C@H](C(=O)[C@@H](O)[C@@H](C)O)[C@@H]1Cc2cc3cc(O[C@H]4C[C@@H](O[C@@H]5C[C@@H](O)[C@H](O)[C@@H](C)O5)[C@H](O)[C@@H](C)O4)c(C)c(O)c3c(O)c2C(=O)[C@H]1O[C@H]1C[C@@H](O[C@@H]2C[C@@H](O)[C@@H](O[C@@H]3C[C@](C)(O)[C@H](O)[C@@H](C)O3)[C@@H](C)O2)[C@H](O)[C@@H](C)O1 [Plicamycin] (top concentration tested 10000 nM) | 6.46 | 7.29 | 17.8 | 18.7
Nc1cccc2c1C(=O)N(C1CCC(=O)NC1=O)C2=O (centres undefined) [Pomalidomide] (top concentration tested 10000 nM) | 0 | 0 | 0 | 0
C=CC(=O)N1CCC(Oc2cc3c(Nc4ccc(Cl)c(Cl)c4F)ncnc3cc2OC)CC1 [Poziotinib] (top concentration tested 1000 nM) | 0 | 0 | 1.53 | 0
CCCCc1nc2cc(/C=C/C(=O)NO)ccc2n1CCN(CC)CC [Pracinostat] (top concentration tested 10000 nM) | 9.85 | 14.5 | 20.7 | 22
CC[C@H](C)C(=O)O[C@H]1C[C@H](O)C=C2C=C[C@H](C)[C@H](CC[C@@H](O)C[C@@H](O)CC(=O)O)[C@H]21 [Pravastatin] (top concentration tested 10000 nM) | 0.36 | 0 | 0 | 2.37
C[C@]12C=CC(=O)C=C1CC[C@@H]1[C@@H]2[C@@H](O)C[C@@]2(C)[C@H]1CC[C@]2(O)C(=O)CO [Prednisolone] (top concentration tested 10000 nM) | 0 | 0 | 0 | 0
C[C@]12C=CC(=O)C=C1CC[C@@H]1[C@@H]2C(=O)C[C@@]2(C)[C@H]1CC[C@]2(O)C(=O)CO [Prednisone] (top concentration tested 10000 nM) | 0.59 | 0 | 0.65 | 3.96
COc1cccc(OCCCN)c1-c1cc(Nc2cnc(C#N)cn2)n[nH]1 [Prexasertib] (top concentration tested 10000 nM) | 15.4 | 12.4 | 42.1 | 37
CNNCc1ccc(C(=O)NC(C)C)cc1 [Procarbazine] (top concentration tested 10000 nM) | 0 | 0 | 0 | 0
Cc1cc(-c2ncc(-c3cccnc3)cc2/C=C/c2ccccc2)cnc1-c1cccnc1 [Pyridoclax] (top concentration tested 25000 nM) | 1.38 | 5.06 | 12.2 | 10.1
Cn1cc(CNCC2CCN(c3ncc(C(=O)NO)cn3)CC2)c2ccccc21 [Quisinostat] (top concentration tested 1000 nM) | 6.14 | 7.75 | 16.3 | 17.9
CC(C)(C)c1cc(NC(=O)Nc2ccc(-c3cn4c(n3)sc3cc(OCCN5CCOCC5)ccc34)cc2)no1 [Quizartinib] (top concentration tested 1000 nM) | 0 | 1.05 | 2.15 | 2.01
Cn1c(Nc2ccc(C(F)(F)F)cc2)nc2cc(Oc3ccnc(-c4ncc(C(F)(F)F)[nH]4)c3)ccc21 [RAF265] (top concentration tested 1000 nM) | 0 | 0.14 | 0 | 0.25
CNC(=O)c1ccc(N2C(=S)N(c3ccc(C#N)c(C(F)(F)F)c3)C(=O)C23CCC3)cc1F [RD162] (top concentration tested 10000 nM) | 0 | 0.2 | 2.62 | 1.68
CCNC(=O)Nc1ccc(-c2nc3c(c(N4CCOC[C@@H]4C)n2)CCN(C2COC2)C3)cc1 [RG-7603] (top concentration tested 2500 nM) | 0 | 0 | 6.22 | 8.47
Nc1cc(F)ccc1NC(=O)/C=C/c1cnn(C/C=C/c2ccccc2)c1 [RGFP966] (top concentration tested 10000 nM) | 0 | 0 | 5.46 | 6.28
